Values joined by “and” are separate entries in the source; they are usually repeats but may differ in a detail not shown here. Equal values may be shown once. A value given as a limit tells only on which side of the number the result lay.

The test system of the experiment is 817829-284-R-J1-PDC complex spheroid viability. Kind of experiment: Anticancer human tumor 817829-284-R-J1-PDC patient-derived colon adenocarcinoma cell line growth inhibition [POLQ]. Particulars: for viability, T/C: stronger effect = lower value; for IC50: curve of compound. As for the experimental part:
Multicellular complex tumor spheroid response to Polymerase (POL) inhibitors (novobiocin, ART-558, RP6685) in combination with a variety of drugs and investigational agents in selected tumor cell lines
The POL inhibitors (novobiocin, ART-558, and RP6685) were evaluated both individually and in combination with standard of care and investigational anticancer small molecules within a complex spheroid model of solid tumors. . Complex spheroids include a stromal component modeled by human endothelial cells (HUVEC) and fibroblasts modeled by human mesenchymal stem cells (MSCs). The concentration ranges selected for each drug and investigational agent were based upon clinically achievable concentrations if the clinical Cmax of the agent was known.
Compounds. The drugs and investigational agents: novobiocin (NSC847541), ART-558 (NSC835418), RP-6685 (NSC848927), peposertib (NSC802822), ceralasertib (NSC780249), elimusertib (NSC800525), camonsertib (NSC841442), AZD-1390 (NSC803789), olaparib (NSC753686), talazoparib (NSC767125), rucaparib (NSC756644), sotorasib (NSC818433), MRTX-1133 (NSC836407), SN-38 (NSC673596), topotecan (NSC609699), epotoside (NSC141540), doxorubicin (NSC123127), gemcitabine (NSC613327), 5-fluorouracil (NSC19893), paclitaxel (NSC125973), vemurafenib (NSC761431), MSA-2 (NSC828583), SN-011 (NSC837082), adavosertib (NSC754352), prexasertib (NSC758257), carboplatin (NSC241240) and oxaliplatin (NSC266046), were obtained from the National Cancer Institute (NCI) Developmental Therapeutics Program Chemical Repository (21). The FDA-approved anticancer drug set is available from the Developmental Therapeutics Program at https://dtp.cancer.gov/organization/dscb/obtaining/. […] The stock solutions were prepared in dimethyl sulfoxide (DMSO, Sigma-Aldrich, St. Louis, MO, cat. D2650), except for the platinum compounds which were prepared in saline (Quality Biological, Gaithersburg, MD, cat. 114-055-101), at 800-fold the tested concentration and stored at -70 degrees C prior to their use. All drugs and investigational agents were tested over a range starting from a high concentration at or near the clinical Cmax and decreasing in half-log increments. If the clinical Cmax for an agent had not been determined, the highest concentration tested was 10 microM, except for SN-38, which was tested at a high concentration of 1 microM.
Cell Culture. All cells were maintained in an incubator at 37 degrees C and 5% CO2 with 95% humidity. The PDC lines were cultured according to standard operating procedures established by the NCI PDMR (https://pdmr.cancer.gov). Table 3 of the manuscript, lists the cell lines along with the number of the three cell types plated to form the mct-spheroids and media for tumor cell growth. After thawing, all PDC lines, except 997537-175-T-J1-PDC and 415267-285-R-J2-PDC, were cultured in Matrigel-coated flasks prepared with a working solution of 1X Ham's F-12 nutrient mix, without supplementation (Thermo Fisher Scientific, cat. 11765054), 100 U/mL penicillin-streptomycin (Thermo Fisher Scientific, cat. 15140122), and 2.5% Matrigel (Corning Inc., Corning, NY, cat. 354248) for the first three passages. The two PDC lines 997537-175-T-J1-PDC and 415267-285-R-J2-PDC were cultured on uncoated flasks. The 857933-349-R-J2-PDC line was cultured in 6C/Colon 1B media containing advanced DMEM/F-12 (Thermo Fisher Scientific, cat. 12634028), 10 mM HEPES (Thermo Fisher Scientific, cat. 15630080), 1X GlutaMAX supplement (Thermo Fisher Scientific, cat. 35050061), 0.1 mg/mL primocin (InvivoGen, San Diego, CA, cat. ant-pm-2), 10% defined fetal bovine serum, heat inactivated (HyClone Laboratories Inc., Logan, UT, cat. SH30070.03HI), 50% L-WRN conditioned media (ATCC, cat. CRL-3276), 1.25 mM N-Acetyl-L-cysteine (Sigma-Aldrich, cat. A9165), 10 mM nicotinamide (Sigma-Aldrich, cat. N0636), 1X B-27 supplement (Thermo Fisher Scientific, cat. 17504044), 1X N-2 supplement (Thermo Fisher Scientific, cat. […]
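Note: spheroids exposed to compounds for 7 days.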

As a reminder, the viability, T/C is the result in the treated group divided by that in the control group, in per cent. A word on the IC50: it is the midpoint of a concentration-inhibition curve. With `C#Cc1c(F)ccc2cc(O)cc(-c3ncc4c(N5CC6CCC(C5)N6)nc(OCC56CCCN5CC(F)C6)nc4c3F)c12` (stereo not given), the IC50 is above 10000 nM. The viability, T/C (compound 0.0316 µM) is 95.2% and 94.8% and 96%. For the same compound, for the setting “compound 0.1 µM”, the viability, T/C is 84.6% and 98.2% and 122%. For the same compound, the viability, T/C (compound 0.316 µM) was 72% and 98.1% and 118%. Where the note is “compound 1 µM”, the viability, T/C is 88.4% and 89% and 92.8%. Where the note is “compound 3.16 µM”, the viability, T/C was 90.2% and 111% and 115%. Moreover, where the note is “compound 10 µM”, the viability, T/C is 53.8% and 102% and 54.2%.

For the compound `C=CC(=O)N1CCN(c2nc(=O)n(-c3c(C)ccnc3C(C)C)c3nc(-c4c(O)cccc4F)c(F)cc23)C(C)C1` (stereo not given), the IC50 is > 10000 nM and 8900 nM. For the same compound, the viability, T/C (compound 0.0316 µM) is 70% and 89.9% and 113%. Under “compound 0.1 µM”, the viability, T/C was 93.6% and 105% and 95.7%. Further, the viability, T/C (compound 0.316 µM) is 103% and 97.2% and 99.5%. In addition, the viability, T/C (compound 1 µM) is 86.7% and 94.7% and 101%. For the same compound, the viability, T/C (compound 3.16 µM) is 88.8% and 90.2% and 102%. The viability, T/C (compound 10 µM) is 53% and 58.3% and 44.1%.

For `C=CCn1c(=O)c2cnc(Nc3ccc(N4CCN(C)CC4)cc3)nc2n1-c1cccc(C(C)(C)O)n1`, the IC50 was 188 nM and 195 nM and 208 nM. Also, where the note is “compound 0.00316 µM”, the viability, T/C is 115% and 101% and 105%. For the same compound, the viability, T/C (compound 0.01 µM) was 93.7% and 84% and 89.8%. Also, for the setting “compound 0.0316 µM”, the viability, T/C was 71.1% and 89.5% and 98.8%. Moreover, under “compound 0.1 µM”, the viability, T/C is 77.6% and 72.5% and 64.8%. The viability, T/C (compound 0.316 µM) is 36.1% and 33.8% and 40.5%. For the same compound, the viability, T/C (compound 1 µM) is 5.95% and 6.09% and 5.44%.

Take `CC(=O)O[C@H]1C(=O)[C@@]2(C)[C@H]([C@H](OC(=O)c3ccccc3)[C@]3(O)C[C@H](OC(=O)[C@H](O)[C@@H](NC(=O)c4ccccc4)c4ccccc4)C(C)=C1C3(C)C)[C@]1(OC(C)=O)CO[C@@H]1C[C@@H]2O`: the IC50 was below 9.49 nM. In addition, the viability, T/C (compound 0.00949 µM) is 5.15% and 4.45% and 5.76%. The viability, T/C (compound 0.03 µM) is 3.94% and 3.44% and 4.19%. Moreover, the viability, T/C (compound 0.0949 µM) was 3.9% and 3.92% and 5.6%. Under “compound 0.3 µM”, the viability, T/C is 4.36% and 3.82% and 4.56%. In addition, the viability, T/C (compound 0.949 µM) was 4.81% and 4.08% and 5.15%. Further, the viability, T/C (compound 3 µM) is 4.4% and 3.61% and 5.14%.

Turning to `CC1COCCN1c1cc(-c2ccnn2C)c2ccnc(-c3ccn[nH]3)c2n1` (stereo not given), the IC50 was < 31.6 nM and 49.9 nM. Besides, the viability, T/C (compound 0.0316 µM) was 33.8% and 33.3% and 74.6%. Besides, where the note is “compound 0.1 µM”, the viability, T/C was 11.3% and 12.5% (2×). Also, the viability, T/C (compound 0.316 µM) was 7.44% and 7.37% and 5.59%. For the same compound, under “compound 1 µM”, the viability, T/C is 4.37% and 3.99% and 4.03%. Under “compound 3.16 µM”, the viability, T/C is 3.67% and 2.87% and 3.57%. Further, the viability, T/C (compound 10 µM) is 2.72% and 2.9% and 2.76%.

As for `CC1COCCN1c1cc(C2(S(C)(=N)=O)CC2)nc(-c2ccnc3[nH]ccc23)n1` (stereo not given), the IC50 is 545 nM and 274 nM and 472 nM. The viability, T/C (compound 0.0316 µM) was 110% and 98% and 105%. Besides, the viability, T/C (compound 0.1 µM) was 96.4% and 67.8% and 94.3%. Further, the viability, T/C (compound 0.316 µM) is 65% and 52.9% and 63.1%. The viability, T/C (compound 1 µM) was 33.9% and 23.4% and 25.4%. For the same compound, the viability, T/C (compound 3.16 µM) is 8.76% and 7.96% and 7.97%. In addition, where the note is “compound 10 µM”, the viability, T/C is 4.29% and 4.9% and 3.97%.

Regarding `CCCS(=O)(=O)Nc1ccc(F)c(C(=O)c2c[nH]c3ncc(-c4ccc(Cl)cc4)cc23)c1F`, the half-inhibitory concentration (IC50) is 3260 nM and 2920 nM and 3800 nM. Moreover, where the note is “compound 0.0316 µM”, the viability, T/C was 89.8% and 97% and 86.7%. In addition, the viability, T/C (compound 0.1 µM) was 87% and 72.4% and 57%. Moreover, the viability, T/C (compound 0.316 µM) was 66.1% and 86.6% and 80.9%. Further, where the note is “compound 1 µM”, the viability, T/C is 72.1% and 59.4% and 61%. The viability, T/C (compound 3.16 µM) is 55.4% and 56.3% and 59.4%. Moreover, under “compound 10 µM”, the viability, T/C is 7.53% and 9.53% and 19.9%.

As for `CC[C@@]1(O)C(=O)OCc2c1cc1n(c2=O)Cc2cc3c(CN(C)C)c(O)ccc3nc2-1`, the IC50 was 4.5 nM and 7.57 nM and 6.12 nM. The viability, T/C (compound 0.000316 µM) was 89.9% and 104% and 89%. The viability, T/C (compound 0.001 µM) was 72.3% and 95.7% and 74.1%. For the same compound, the viability, T/C (compound 0.00316 µM) was 55.4% and 82.4% and 60.1%. For the same compound, under “compound 0.01 µM”, the viability, T/C is 39.6% and 38.4% and 46%. For the same compound, the viability, T/C (compound 0.0316 µM) was 22.9% and 25.4% and 21.7%. Also, the viability, T/C (compound 0.1 µM) is 15.2% and 16.8% and 14.6%.

As for `CCc1c2c(nc3ccc(O)cc13)-c1cc3c(c(=O)n1C2)COC(=O)[C@]3(O)CC`, the IC50 was below 3.16 nM. In addition, the viability, T/C (compound 0.00316 µM) is 19.4% and 20.1% and 25.3%. For the same compound, the viability, T/C (compound 0.01 µM) is 16.5% and 16.4% and 16.3%. For the same compound, under “compound 0.0316 µM”, the viability, T/C is 13.7% and 12.4% and 11.8%. Besides, the viability, T/C (compound 0.1 µM) is 7.6% and 9.24% and 7.39%. In addition, for the setting “compound 0.316 µM”, the viability, T/C was 6.4% and 5.1% and 5.47%. Also, the viability, T/C (compound 1 µM) is 3.09% and 2.77% and 3.28%.

`CCc1cc2c(N3CCc4c(cc(Cn5ccnc5)cc4-c4cn(C)nc4C(F)(F)F)C3=O)cc(C)nc2c(OC)n1`: the IC50 is 2800 nM and 1740 nM and 2830 nM. Also, the viability, T/C (compound 0.0316 µM) was 88.4% and 75.3% and 76.3%. For the same compound, the viability, T/C (compound 0.1 µM) was 85.8% and 83.5% and 79.4%. For the same compound, the viability, T/C (compound 0.316 µM) was 75.3% and 63.8% and 69.3%. Further, for the setting “compound 1 µM”, the viability, T/C was 80.6% and 56.1% and 65.8%. The viability, T/C (compound 3.16 µM) is 46.4% and 44.7% and 47.9%. Further, the viability, T/C (compound 10 µM) was 33.1% and 29.7% and 30.8%.

The record behind these values is PubChem BioAssay AID1963839 (Molecular Pharmacology Branch, DTP, NCI, 2024).
